# Measured values: US20090203661A1, “Betulinic acid, derivatives and analogs thereof and uses therefor” (priority 2006, published 2009)
# Like-named read-outs stand apart in the source and are kept apart here.
# Experiments:
# [1] = test system: PPARγ; test: PPARγ transactivation (PPARγ-GAL4/pGAL4, PPRE3-luc) in Panc-28 cells; type: cell-based
# Procedure: (§1) Cells were seeded onto the 12-well plates and 0.4 μg of GAL4-Luc, 0.04 μg of β-GAL, 0.04 μg of GAL4DBD-PPARγ, and 0.4 μg of p21-luc(FL) containing −2325 to +8 insert, 0.4 μg of p21-luc (−124) containing −124 to +8 insert and 0.4 μg of p21-LUC (−60) containing −60 to +8 insert were transfected using LipofectAMINE reagent (Invitrogen) following the manufacturer's protocol. Cells were treated either with vehicle or respective compounds suspended in complete medium after 6 hr of transfection. Cell lysate is extracted after 20-22 hr by adding 100 μl of 1× reporter lysis buffer per well and 30 μl of this extract is used to quantitate the luciferase activity using Lumicount (Perkin-Elmer Life and Analytical Sciences). Each experiment is done in triplicate and the results are normalized to the β-GAL activity.
# [2] = test system: SW480 cells; test: Cell proliferation assay, SW480 cells; type: cell-based, human; conditions: read-out: IC50 values, inhibition of growth
# Procedure: SW480, HT-29 and HCT-15 human colon cancer cells were provided by Dr. Stan Hamilton (M. D. Anderson Cancer Center (Houston, Tex.). Panc-28 human pancreatic cancer cells and 3T3-L1 pre-adipocytes were obtained from American Type Culture Collection (Manassas, Va.). SW480, HT-29 and Panc-28 cells were maintained in Dulbecco's modified/Ham's F-12 (Sigma-Aldrich, St Louis, Mo.) with phenol red supplemented with 0.22% sodium bicarbonate, 0.011% sodium pyruvate, 5% fetal bovine serum, and 10 mL/L 100× antibiotic antimycotic solution (Sigma). HCT-15 cells were maintained in RPMI 1640 (Sigma) supplemented with 0.22% sodium bicarbonate, 0.011% sodium pyruvate, 0.45% glucose, 0.24% HEPES, 10% fetal bovine serum, and 10 mL/L of 100× antibiotic antimycotic solution (Sigma). Cells were maintained at 37° C. in the presence of 5% CO2.
# This assay is performed in 12-well tissue culture plates at the concentration of 2×10^4 cells per well, using DMEM/Ham's F-12 media containing 2.5% charcoal stripped FBS. The cells were counted on the initial day using a Z1 cell counter (Beckman Coulter, Fullerton, Calif.) and then were treated either with vehicle (DMSO) or the indicated triterpenoid compounds, each sample in triplicate. Every 48 hr, fresh medium was added along with the indicated compounds. The count of the cells was taken after 2, 4 and 6 days. The results are expressed as means±S.E for each set of triplicate.
# [3] = test system: Panc-28 cells; test: Western blot of p21, p27, cyclin D1 in Panc-28 cells; type: cell-based, human; conditions: for effect of T007 on induction of p21 protein: 5 μM compound plus 10 μM T007; for cyclin D1 expression / p27 expression: Panc-28; for p21 protein expression: Panc-28, 24 hr
# Procedure: (§2) SW480, HT-29, HCT-15 and Panc-28 (3×10^5) colon cancer cells were seeded in 6-well tissue culture plates in DMEM/Ham's F-12 medium containing 2.5% charcoal-stripped FBS. Protein is extracted from the cells treated either with vehicle or indicated compounds suspended for 24 hr except for caveolin-1 protein which was done for 72 hr. Samples were extracted in high salt buffer [50 mmol/L HEPES, 500 mmol/L NaCl, 1.5 mmol/L MgCl2, 1 mmol/L EGTA, 10% glycerol, and 1% Triton X-100 (pH 7.5), and 5 μL/mL protease inhibitor cocktail (Sigma-Aldrich)]. Samples were incubated at 100° C. for 2 min, separated on either 10% or 12% SDS-PAGE gels and then transferred to polyvinylidene difluoride membrane (PVDF; Bio-Rad, Hercules, Calif.). The PVDF membrane was blocked in 5% TBST-Blotto (10 mM Tris HCl, 150 mM NaCl, pH 8.0, 0.05% Triton X-100, and 5% nonfat dry milk) for about 30 min and was then incubated in fresh 5% TBST-Blotto with 1:1000 for caveolin-1 (Santa Cruz Biotechnology, Santa Cruz, Calif.), 1:1000 for p21 (BD Pharmingen, Frank lakes, NJ) and 1:10000 for β-actin (Sigma) primary antibody overnight with gentle shaking at 4° C. After washing with TBST for 10 min, the membrane was incubated with respective secondary antibody (1:5000) (Santa cruz, Calif.) in 5% TBST-Blotto for 3 hr. The membrane is then washed with TBST for 10 min, incubated with chemiluminiscence reagent from Perkin Elmer for one min and then exposed to Kodak X-OMAT AR autoradiography film (Eastman Kodak, Rochester, N.Y.).
# [4] = test system: PPARγ; test: PPARγ transactivation (PPARγ-GAL4/pGAL4, PPRE3-luc) in SW480 cells; type: cell-based; conditions: for transactivation, PPARγ-GAL4/pGAL4 and PPRE3-luc: SW480, 2.5-10 μM; for effect of PPARγ antagonist T007 on induced activities: SW480, cotreatment with T007
# Procedure: as §1
# [5] = test system: HT-29 cells; test: KLF4 mRNA (RT-PCR) in HT-29 cells; type: cell-based, human; conditions: for effect of T007 on induction of KLF4 mRNA: HT-29, cotreatment with T007; for KLF4 mRNA levels: HT-29
# Procedure: SW480 and HT29 colon cancer cells were treated either with vehicle (DMSO) or indicated compounds and after 24 hr total RNA was extracted using RNeasy Mini kit (Qiagen, Inc., Valencia, Calif.). RNA concentration was measured by UV 260:280 nm absorption ratio and 2 μg RNA was used to synthesize cDNA using Reverse Transcription System (Promega). PCR conditions were as follows: initial denaturation at 94° C. (1 min) followed by 28 cycles of denaturation for 30 s at 94° C., annealing for 60 s at 55° C. and extension at 72° C. for 60 s and a final extension step at 72° C. for 5 min. The mRNA levels were normalized using GAPDH as an internal housekeeping gene. Primers obtained from IDT and used for amplification are as follows: KLF4 (sense 5′-CTATGGCAGGGAGTCCGCTCC-3′ (SEQ ID NO: 1); antisense 5′-ATGACCGACGGGCTGCCGTAC-3′ (SEQ ID NO: 2)) and GAPDH (sense 5′-ACGGATTTGGTCGTATTGGGCG-3′ (SEQ ID NO: 3); antisense 5′-CTCCTGGAAGATGGTGATGG-3′ (SEQ ID NO: 4). PCR products were electrophoresed on 1% agarose gels containing ethidium bromide and visualized under UV transillumination.
# [6] = test system: HCT-15 cells; test: Caveolin-1 expression (Western blot) in HCT-15 cells; type: cell-based, human; conditions: HCT-15, cotreatment with T007
# Procedure: as §2, with “The membrane is then washed with TBST for 10 min, incubated with chemiluminiscence reagent from Perkin Elmer for one min and then exposed to Kodak X-OMAT AR autoradiography film (Eastman Kodak, Rochester, N.Y.).” left out
# [7] = test system: HT-29 cells; test: miR-27a and ZBTB10 mRNA expression in HT-29 cells; type: cell-based, human
IC50 ([2]; Homo sapiens) [nM],IC50 [2] [nM],Compound,"luciferase activity, PPARγ-GAL4/pGAL4 and PPRE3-luc ([1]; Panc-28)",effect of T007 on induction of p21 protein [3],"transactivation, PPARγ-GAL4/pGAL4 and PPRE3-luc [4]",effect of T007 on induction of KLF4 mRNA [5],"effect of T007 on induced luciferase activity ([1]; Panc-28, cotreatment with T007)",effect of T007 on induced caveolin-1 response [6],cyclin D1 expression [3],p27 expression [3],p21 protein expression [3],effect of PPARγ antagonist T007 on induced activities [4],KLF4 mRNA levels [5],ZBTB10 expression [7],miR-27a expression [7],"induction, PPARγ-GAL4/pGAL4 ([1]; Panc-28)","induction, PPRE3-luc ([1]; Panc-28, data not shown)"
1000 to 5000,,"C=C(C)[C@@H]1CC[C@]2(C(=O)O)CC[C@]3(C)[C@H](CC[C@@H]4[C@@]5(C)CC[C@H](O)C(C)(C)[C@@H]5CC[C@]43C)[C@@H]12 [betulinic acid, Betulinic acid]",inactive,not inhibited,inactive,did not inhibit,,,,,,,,,,,
,1000,CC(C)C1CCC2(C(=O)O)CCC3(C)C(CCC4C5(C)C=C(C#N)C(=O)C(C)(C)C5CCC43C)C12 (stereo not drawn) [CN-BA],induced luciferase activity,significantly inhibited,induced transactivation,did not inhibit,inhibited,inhibition of the induced caveolin-1 response,downregulation of cyclin D1,induction of p27,induce p21 protein expression,inhibited by T007,induced KLF4 mRNA levels,increased expression of ZBTB10,decreased expression of miR-27a,,
,1000 to 2500,"COC(=O)C12CCC(C(C)C)C1C1CCC3C4(C)C=C(C#N)C(=O)C(C)(C)C4CCC3(C)C1(C)CC2 (stereo not drawn) [CN-BA-Me, Methyl 2-cyano-lup-1-en-3-oxo-20-oate]",,significantly inhibited,induced transactivation,did not inhibit,,inhibition of the induced caveolin-1 response,downregulation of cyclin D1,induction of p27,induce p21 protein expression,inhibited by T007,induced KLF4 mRNA levels,increased expression of ZBTB10,decreased expression of miR-27a,minimal induction,no induction
